Assays:
Format in all cases: cell-based
[1] = molecular target: T1, human TLR8 (Homo sapiens, UniProt Q9NR97); experiment: TLR8 inhibition reporter assay (HEK-Blue cells, SEAP reporter, R848 stimulation); details: HEK-Blue cells overexpressing human TLR8, SEAP reporter, R848 15.9 μM
T1 construct: host or cells: HEK-Blue cells
T1 sequence (Q9NR97 27-1041): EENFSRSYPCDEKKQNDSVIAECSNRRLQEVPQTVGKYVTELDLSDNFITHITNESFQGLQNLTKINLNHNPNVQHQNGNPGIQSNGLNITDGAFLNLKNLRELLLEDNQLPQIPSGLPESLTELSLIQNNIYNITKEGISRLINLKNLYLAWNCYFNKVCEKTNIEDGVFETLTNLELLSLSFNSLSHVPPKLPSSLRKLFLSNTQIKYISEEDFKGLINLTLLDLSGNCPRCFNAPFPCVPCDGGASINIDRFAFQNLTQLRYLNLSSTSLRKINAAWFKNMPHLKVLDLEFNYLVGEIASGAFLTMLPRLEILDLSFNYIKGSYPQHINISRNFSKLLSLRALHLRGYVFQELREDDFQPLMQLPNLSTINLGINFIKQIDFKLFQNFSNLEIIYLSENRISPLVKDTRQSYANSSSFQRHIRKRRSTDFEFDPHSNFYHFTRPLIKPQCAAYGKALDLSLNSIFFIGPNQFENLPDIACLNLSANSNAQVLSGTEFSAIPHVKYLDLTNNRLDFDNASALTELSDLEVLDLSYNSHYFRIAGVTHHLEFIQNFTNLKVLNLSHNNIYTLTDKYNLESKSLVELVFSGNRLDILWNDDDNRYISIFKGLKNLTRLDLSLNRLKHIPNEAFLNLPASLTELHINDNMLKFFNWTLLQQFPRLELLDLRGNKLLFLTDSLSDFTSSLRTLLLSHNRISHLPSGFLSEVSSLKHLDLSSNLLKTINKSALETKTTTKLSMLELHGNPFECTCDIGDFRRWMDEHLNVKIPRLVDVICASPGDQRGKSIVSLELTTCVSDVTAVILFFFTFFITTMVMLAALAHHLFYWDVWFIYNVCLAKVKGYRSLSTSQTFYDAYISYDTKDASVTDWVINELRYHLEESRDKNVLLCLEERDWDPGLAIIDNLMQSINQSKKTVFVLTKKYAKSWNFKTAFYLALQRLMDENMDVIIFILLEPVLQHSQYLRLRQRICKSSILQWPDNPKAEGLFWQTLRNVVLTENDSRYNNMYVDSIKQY
Summary of the method: (§1)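 Ligand levels: TLR7 gardiquimod 7.5 μM, TLR8 R848 15.9 μM, TLR9 ODN2006 5 nM, added after 30 min room-temperature compound pre-incubation at 0.05 nM-50 μM. Reporter SEAP read with HEK-Blue Detection reagent after 22 h, 37° C. Inhibition expressed as % reduction relative to agonist-plus-DMSO and known-inhibitor controls.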

[2] = molecular target: T2, human TLR7 (Homo sapiens, UniProt Q9NYK1); experiment: TLR7 inhibition reporter assay (HEK-Blue cells, SEAP reporter, gardiquimod stimulation); details: HEK-Blue cells overexpressing human TLR7, SEAP reporter, gardiquimod 7.5 μM
T2 construct: host or cells: HEK-Blue cells
T2 sequence (Q9NYK1 27-1049): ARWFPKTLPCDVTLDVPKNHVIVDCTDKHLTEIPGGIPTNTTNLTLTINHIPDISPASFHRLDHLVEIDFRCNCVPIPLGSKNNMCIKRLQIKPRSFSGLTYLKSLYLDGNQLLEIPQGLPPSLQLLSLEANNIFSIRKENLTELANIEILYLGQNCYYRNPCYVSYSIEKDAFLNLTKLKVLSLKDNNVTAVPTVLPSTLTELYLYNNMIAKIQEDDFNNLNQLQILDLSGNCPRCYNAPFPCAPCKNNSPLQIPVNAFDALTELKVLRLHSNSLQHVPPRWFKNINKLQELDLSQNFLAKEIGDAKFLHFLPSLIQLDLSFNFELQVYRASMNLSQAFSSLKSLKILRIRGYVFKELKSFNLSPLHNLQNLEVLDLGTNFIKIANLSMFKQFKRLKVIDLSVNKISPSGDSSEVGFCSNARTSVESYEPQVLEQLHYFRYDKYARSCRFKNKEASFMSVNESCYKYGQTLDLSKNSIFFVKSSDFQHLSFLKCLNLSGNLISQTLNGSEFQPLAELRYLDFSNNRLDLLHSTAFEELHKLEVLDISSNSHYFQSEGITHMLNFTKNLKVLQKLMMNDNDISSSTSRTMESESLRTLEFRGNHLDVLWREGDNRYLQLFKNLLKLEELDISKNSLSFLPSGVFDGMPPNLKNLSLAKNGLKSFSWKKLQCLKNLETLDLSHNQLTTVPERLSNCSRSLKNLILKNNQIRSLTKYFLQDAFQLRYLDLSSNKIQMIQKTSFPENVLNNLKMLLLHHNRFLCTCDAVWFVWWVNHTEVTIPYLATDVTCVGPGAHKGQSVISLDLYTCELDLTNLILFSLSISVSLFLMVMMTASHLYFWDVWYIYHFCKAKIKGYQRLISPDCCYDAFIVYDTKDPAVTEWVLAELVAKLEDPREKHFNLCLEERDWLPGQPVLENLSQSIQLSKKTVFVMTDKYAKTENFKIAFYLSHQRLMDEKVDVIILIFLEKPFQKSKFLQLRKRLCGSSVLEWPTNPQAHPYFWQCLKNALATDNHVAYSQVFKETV
Summary of the method: as §1

[3] = molecular target: T3, human TLR9 (Homo sapiens, UniProt Q9NR96); experiment: TLR9 inhibition reporter assay (HEK-Blue cells, SEAP reporter, ODN2006 stimulation); details: HEK-Blue cells overexpressing human TLR9, SEAP reporter, ODN2006 5 nM
T3 construct: host or cells: HEK-Blue cells
T3 sequence (Q9NR96 26-1032): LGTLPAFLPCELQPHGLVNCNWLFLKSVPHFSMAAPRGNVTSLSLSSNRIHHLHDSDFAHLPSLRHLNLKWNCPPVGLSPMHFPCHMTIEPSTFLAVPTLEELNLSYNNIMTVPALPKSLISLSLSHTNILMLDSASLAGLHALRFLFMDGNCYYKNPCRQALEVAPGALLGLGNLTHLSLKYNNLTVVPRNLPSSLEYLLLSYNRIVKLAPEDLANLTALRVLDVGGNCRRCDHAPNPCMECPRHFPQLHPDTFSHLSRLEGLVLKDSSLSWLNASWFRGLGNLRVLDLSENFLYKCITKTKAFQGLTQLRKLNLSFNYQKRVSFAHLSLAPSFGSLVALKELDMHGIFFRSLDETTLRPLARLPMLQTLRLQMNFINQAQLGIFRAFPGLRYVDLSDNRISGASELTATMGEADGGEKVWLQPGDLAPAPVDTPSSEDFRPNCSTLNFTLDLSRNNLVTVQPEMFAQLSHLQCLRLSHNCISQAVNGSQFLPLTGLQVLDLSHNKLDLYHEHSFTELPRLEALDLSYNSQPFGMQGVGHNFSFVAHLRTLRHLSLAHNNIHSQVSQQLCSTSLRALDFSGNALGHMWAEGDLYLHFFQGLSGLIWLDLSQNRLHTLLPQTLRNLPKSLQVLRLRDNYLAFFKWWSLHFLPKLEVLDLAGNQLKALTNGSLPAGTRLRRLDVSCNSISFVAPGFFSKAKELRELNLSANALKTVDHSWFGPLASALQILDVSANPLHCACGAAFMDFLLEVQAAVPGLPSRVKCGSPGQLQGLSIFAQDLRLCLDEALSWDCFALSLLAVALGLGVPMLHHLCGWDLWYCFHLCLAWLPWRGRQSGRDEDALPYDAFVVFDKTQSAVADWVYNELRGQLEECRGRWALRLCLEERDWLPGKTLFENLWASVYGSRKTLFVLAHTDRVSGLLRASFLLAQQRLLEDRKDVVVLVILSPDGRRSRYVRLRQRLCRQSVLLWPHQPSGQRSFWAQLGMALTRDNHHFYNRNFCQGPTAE
Summary of the method: as §1

SMILES: Cc1c(-c2[nH]c3ccc(C4CNC4)cc3c2C(C)C)cn2cnnc2c1C [Example 531]
- IC50 [1]: 0.137 µM
- IC50 [2]: 0.057 µM
- IC50 [3]: 10.2 µM

SMILES: Cc1cc(-c2[nH]c3ccc([C@@H]4C[C@H]4C(=O)N(C)C4CC5CCN4CC5)cc3c2C(C)C)ccn1 (stereo partly drawn) [Example 463]
- IC50 [1]: 0.015 µM
- IC50 [2]: 0.035 µM
- IC50 [3]: 0.406 µM

SMILES: Cc1cc(-c2[nH]c3ccc(C4CCC(O)CC4)cc3c2C(C)C)ccn1 (stereo not drawn) [Example 174]
- IC50 [1]: 0.518 µM
- IC50 [2]: 0.164 µM
- IC50 [3]: > 50 µM

SMILES: Cc1cc(-c2[nH]c3ccc(C4CCC(C(=O)N5CCCCC5)CC4)cc3c2C(C)C)cn2ncnc12 (single isomer, unassigned) [Example 160]
- IC50 [1]: 0.154 µM
- IC50 [2]: 0.009 µM
- IC50 [3]: 30.3 µM

SMILES: Cc1cc(-c2[nH]c3ccc(C4CN(CC(C)(C)O)CCO4)cc3c2C(C)C)cc(C)n1 (stereo not drawn) [Example 357]
- IC50 [1]: 0.0054 µM
- IC50 [2]: 0.036 µM
- IC50 [3]: 1.97 µM

SMILES: CC(C)c1c(-c2ccnc3[nH]ncc23)[nH]c2ccc(C3CCC(Oc4ccncc4)CC3)cc12 (stereo not drawn) [Example 504]
- IC50 [1]: 0.162 µM
- IC50 [2]: 0.098 µM
- IC50 [3]: 5.01 µM

SMILES: Cc1cc(-c2[nH]c3ccc(C4CCC(N5CCOCC5)CC4)cc3c2C(C)C)cc(C)n1 (stereo not drawn) [Example 498]
- IC50 [1]: 0.018 µM
- IC50 [2]: 0.005 µM
- IC50 [3]: 0.531 µM

SMILES: CNC(=O)CN1CCCC(c2ccc3[nH]c(-c4cc(OC)c5ncnn5c4)c(C(C)C)c3c2)C1 (stereo not drawn) [Example 228]
- IC50 [1]: 0.01 µM
- IC50 [2]: 0.002 µM
- IC50 [3]: 4.87 µM

SMILES: Cc1c(-c2[nH]c3ccc(C4CCC(N(C)C)CC4)cc3c2C(C)C)cn2cnnc2c1C (stereo not drawn) [Example 527]
- IC50 [1]: 0.0045 µM
- IC50 [2]: 0.00052 µM
- IC50 [3]: 0.765 µM

SMILES: Cc1cc(-c2[nH]c3ccc(C4CCC(N5CCC(F)(F)CC5)CC4)cc3c2C(C)C)cn(C)c1=O (stereo not drawn) [Example 466]
- IC50 [1]: 0.026 µM
- IC50 [2]: 0.032 µM
- IC50 [3]: > 50 µM

SMILES: Cc1c(-c2[nH]c3ccc(CC4CN(C5CCOCC5)C4)cc3c2C(C)C)cn(C)c(=O)c1C [Example 416]
- IC50 [1]: 0.0064 µM
- IC50 [2]: 0.115 µM
- IC50 [3]: 4.09 µM

SMILES: Cc1c(-c2[nH]c3ccc(CC4CNC4)cc3c2C(C)C)cn(C)c(=O)c1C [Example 417]
- IC50 [1]: 0.036 µM
- IC50 [2]: 0.076 µM
- IC50 [3]: 2.11 µM

SMILES: COc1cc(-c2[nH]c3ccc(C4CCC(NC(=O)CN5CCS(=O)(=O)CC5)CC4)cc3c2C(C)C)cn2ncnc12 (stereo not drawn) [Example 144]
- IC50 [1]: 0.0097 µM
- IC50 [2]: 0.003 µM
- IC50 [3]: 33.3 µM

SMILES: Cc1cc(-c2[nH]c3ccc(C4CCC(N5CCCC(F)(F)C5)CC4)cc3c2C(C)C)cn(C)c1=O (stereo not drawn) [Example 468]
- IC50 [1]: 0.219 µM
- IC50 [2]: 0.28 µM
- IC50 [3]: > 50 µM

SMILES: Cc1cc(-c2[nH]c3ccc(C4CCC(N(C)CC(=O)N(C)C)CC4)cc3c2C(C)C)cn2ncnc12 (single isomer, unassigned) [Example 178, 2-((4-(3-isopropyl-2-(8-methyl-[1,2,4]triazolo[1,5-a]pyridin-6-yl)-1H-indol-5-yl)cyclohexyl)(methyl)amino)-N,N-dimethylacetamide]
- IC50 [1]: 0.0024 µM
- IC50 [2]: 0.00023 µM
- IC50 [3]: 1.78 µM

SMILES: COc1cc(-c2[nH]c3ccc(C4CCC(N(C)OC)CC4)cc3c2C(C)C)cn2ncnc12 (stereo not drawn) [Example 99]
- IC50 [1]: 0.053 µM
- IC50 [2]: 0.007 µM
- IC50 [3]: 15.3 µM

SMILES: COc1cc(-c2[nH]c3ccc(C4CCCN(C5CCOCC5)C4)cc3c2C(C)C)cn2ncnc12 (stereo not drawn) [Example 244]
- IC50 [1]: 0.00069 µM
- IC50 [2]: 0.004 µM
- IC50 [3]: 1.19 µM

SMILES: COCCN1CC(c2ccc3[nH]c(-c4cc(C)c5ncnn5c4)c(C(C)C)c3c2)OCC1(C)C (stereo not drawn) [Example 383]
- IC50 [1]: 0.041 µM
- IC50 [2]: 0.009 µM
- IC50 [3]: 13.7 µM

SMILES: COc1cc(-c2[nH]c3ccc(C4CN(C)CCO4)cc3c2C(C)C)cn2ncnc12 (stereo not drawn) [Example 299]
- IC50 [1]: 0.0033 µM
- IC50 [2]: 0.002 µM
- IC50 [3]: 5.57 µM

SMILES: Cc1cc(-c2[nH]c3ccc(C4CN(CC(N)=O)CCO4)cc3c2C(C)C)cc(C)n1 (stereo not drawn) [Example 324]
- IC50 [1]: 0.114 µM
- IC50 [2]: 0.044 µM
- IC50 [3]: 45 µM

SMILES: COc1ccc(-c2[nH]c3ccc(C4CCC(O)CC4)cc3c2C(C)C)cc1OC (stereo not drawn) [Example 451]
- IC50 [1]: 0.238 µM
- IC50 [2]: 0.139 µM
- IC50 [3]: 19.5 µM

Reference: US11878975B2, “Substituted indole compounds useful as TLR inhibitors” (BRISTOL-MYERS SQUIBB COMPANY, priority 2017, dated 2024)
